One assay addresses T1, Nrp2-b1b2 (Homo sapiens, UniProt O60462).
T1 sequence (O60462 276-595 limits assumed): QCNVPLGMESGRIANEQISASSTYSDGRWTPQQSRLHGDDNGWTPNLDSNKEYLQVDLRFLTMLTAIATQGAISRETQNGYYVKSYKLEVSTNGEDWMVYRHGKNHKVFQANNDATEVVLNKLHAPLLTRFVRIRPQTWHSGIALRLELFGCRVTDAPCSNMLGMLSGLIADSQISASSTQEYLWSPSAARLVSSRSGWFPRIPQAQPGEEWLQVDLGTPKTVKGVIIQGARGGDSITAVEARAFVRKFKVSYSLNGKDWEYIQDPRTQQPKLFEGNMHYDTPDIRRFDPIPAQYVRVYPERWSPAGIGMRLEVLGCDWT
Particulars: cited from earlier work.

For another assay, the system named is PD-L1 mRNA in PC3. The experiment in a line: PD-L1 mRNA by qPCR in PC3 cells treated with YAP inhibitor. Format: cell-based, human. Particulars: Verteporfin 2 μM for 24 hours versus DMSO. As for the experimental part:
(D) Bar graphs show fold change of PD-L1/18S mRNA in PC3 treated with DMSO versus PC3 treated with YAP inhibitor (Verteporfin) from 3 independent experiments determined by qPCR.
The following reagents were used: CellTrace™ Violet Cell Proliferation Kit (Thermo Fisher, C34571), eBioscience™ Fixable Viability Dye eFluor™ 780 (Invitrogen, 65-0865-14). Verteporfin was purchased from Tocris and used at a concentration of 2 μM for 24 hours.
Real-time qPCR. RNA extraction was accomplished using an RNA isolation kit (BS88133, Bio Basic Inc.), and cDNAs were produced using a qScript cDNA syn-thesis kit (#95047, Quantabio). SYBR Green (Applied Biosystems) was used as the qPCR master mix. Experiments were performed in triplicate and normalized to 18S. qPCR primer sequences were obtained from the Massachusetts General Hospital/Harvard Medical School PrimerBank (pga.mgh. harvard.edu/primerbank/).
On the technique in general: Quantitative PCR measures a nucleic acid by following its amplification.

Numbered stars: 1 amine (or outer) side, 2 acyl side, 3 side chain; on linkers, the order of the positions; unused ones are H or OH. Bridge positions count the residues as written; N and C are the ends. Square brackets hold non-standard residues; d marks the D form. Peptide text beside a SMILES is read from it. I, II: the chains in the order shown. Actinocin(9to1) = Cc1c2oc3c(C)ccc(C(=O)[*:1])c3nc-2c(C(=O)[*:2])c(N)c1=O; NMeV = CN[C@H](C(=O)O)C(C)C; Sar = CNCC(=O)O

For the compound `Oc1cc2c(cc1O)[C@H]1c3ccccc3CN[C@@H]1CC2` (racemic) [Dihydrexidine], the AP-VEGF-C/Nrp2-b1b2 binding entry at Nrp2-b1b2 is listed as “inhibit”.
`Cc1c2oc3c(C)ccc(C(=O)N[C@@H]4C(=O)N[C@H](C(C)C)C(=O)N5CCC[C@H]5C(=O)N(C)CC(=O)N(C)[C@@H](C(C)C)C(=O)O[C@@H]4C)c3nc-2c(C(=O)N[C@@H]2C(=O)N[C@H](C(C)C)C(=O)N3CCC[C@H]3C(=O)N(C)CC(=O)N(C)[C@@H](C(C)C)C(=O)O[C@@H]2C)c(N)c1=O` [Actinomycin D] (I: T[dV]P[Sar][NMeV] / II: T[dV]P[Sar][NMeV]; ester I:1-I:C, II:1-II:C; linker I:N-II:N via Actinocin(9to1)): at Nrp2-b1b2, the AP-VEGF-C/Nrp2-b1b2 binding result is “inhibit”.
For the compound `COc1cc(C(=O)NS(=O)(=O)c2ccccc2C)ccc1Cc1cn(C)c2ccc(NC(=O)OC3CCCC3)cc12` [Zafirlukast], on Nrp2-b1b2, the AP-VEGF-C/Nrp2-b1b2 binding entry is given as “inhibit”.
As for Verteporfin, the “PD-L1 mRNA level (PD-L1/18S)” value with PD-L1 mRNA in PC3 is reported as “significantly reduced”.

The values above are taken from patent US20250179502A1, “TARGETING NEUROPILIN 2 (NRP2) IN LETHAL PROSTATE CANCER” (UNIVERSITY OF MASSACHUSETTS, priority 2022, published 2025).
